# Literature values in patent US20080020052A1, “Vascular Embolus Of Paclitaxel-Sodium Alginate Microsphere And Its Preparation” (priority 2004, published 2008).
smiles,measurement,value
"CC(=O)O[C@H]1C(=O)[C@@]2(C)[C@H]([C@H](OC(=O)c3ccccc3)[C@]3(O)C[C@H](OC(=O)[C@H](O)[C@@H](NC(=O)c4ccccc4)c4ccccc4)C(C)=C1C3(C)C)[C@]1(OC(C)=O)CO[C@@H]1C[C@@H]2O [Paclitaxel, paclitaxel]",plasma and protein binding ratio,89-98%
